ChEMBL document CHEMBL5120965, “Moroidin, a Cyclopeptide from the Seeds of Celosia cristata That Induces Apoptosis in A549 Human Lung Cancer Cells” (J Nat Prod, 2022)
pIC50: −log10 of the molar value. Calls of active or inactive are those of the source. The rule behind the calls is not given here.

Tests used:
[1] = system: A549; assay: Induction of microtubule depolymerization in human A549 cells assessed as occurence of cell shrinkage at 2.5 uM measured after 48 hrs by DAPI staining based immunofluorescence assay; type: functional
[2] = system: A549; assay: Induction of microtubule depolymerization in human A549 cells assessed as occurence of rounded cells at 2.5 uM measured after 48 hrs by DAPI staining based immunofluorescence assay; type: functional, cell-based
[3] = system: A549; assay: Induction of microtubule depolymerization in human A549 cells assessed as reduction in tubulin protein level at 2.5 uM by Western blot analysis; type: functional; parameters: scale not given: the % may be the effect or the level left
[4] = system: A549; assay: Antiproliferative activity against human A549 cells assessed as reduction in cell viability at 0.01 to 100 uM measured after 24 to 72 hrs by MTT assay; type: functional, cell-based; details: dose 0.01-100 µM, time 24-72 hrs
[5] = system: A549; assay: Cytotoxicity against human A549 cells assessed as reduction in cell viability incubated for 72 hrs by MTT assay; type: functional, cell-based; details: A549, 72 h
[6] = system: NCI-H1299; assay: Cytotoxicity against human H1299 cells assessed as reduction in cell viability incubated for 72 hrs by MTT assay; type: functional, cell-based; details: NCI-H1299, 72 h
[7] = system: U-87 MG; assay: Cytotoxicity against human U87 cells assessed as reduction in cell viability incubated for 72 hrs by MTT assay; type: functional, cell-based, U-87MG ATCC
[8] = system: U-251; assay: Cytotoxicity against human U-251 cells assessed as reduction in cell viability incubated for 72 hrs by MTT assay; type: functional, cell-based; details: U-251, 72 h
[9] = system: HCT-116; assay: Cytotoxicity against human HCT-116 cells assessed as reduction in cell viability incubated for 72 hrs by MTT assay; type: functional, cell-based; details: HCT-116, 72 h
[10] = system: MCF7; assay: Cytotoxicity against human MCF7 cells assessed as reduction in cell viability incubated for 72 hrs by MTT assay; type: functional, cell-based; details: MCF7, 72 h
[11] = system: A549; assay: Inhibition of colony formation in human A549 cells up to 20 uM measured after 10 days by crystal violet staining based assay; type: functional, cell-based; details: dose 1.25-20 µM, time 10.0 day, DDE = dose-dependent effect
[12] = system: MCF7; assay: Inhibition of colony formation in human MCF7 cells measured after 10 days by crystal violet staining based assay; type: functional, cell-based; details: dose 1.25-20 µM, time 10.0 day, DDE = dose-dependent effect
[13] = system: A549; assay: Induction of microtubule depolymerization in human A549 cells assessed as reduction in microtubule network measured after 48 hrs by DAPI staining based immunofluorescence assay; type: functional, cell-based; details: dose 2.5-5 µM
[14] = system: A549; assay: Induction of microtubule depolymerization in human A549 cells assessed as fragmentation of microtubule network measured after 48 hrs by DAPI staining based immunofluorescence assay; type: functional, cell-based; details: dose 2.5-5 µM
[15] = system: A549; assay: Induction of cell cycle arrest in human A549 cells assessed as increase in accumulation of cells at G2/M phase at 5 to 20 uM measured after 48 hrs by […]propidium iodide staining based flow cytometry analysis (reference value: 8.33%); type: functional; details: dose 5-20 µM
[16] = system: A549; assay: Induction of cell cycle arrest in human A549 cells assessed as decrease in ratio of cells at G1 phase measured after 48 hrs by […]propidium iodide staining based flow cytometry analysis; type: functional; details: dose 5-20 µM, DDE = dose-dependent effect
[17] = system: A549; assay: Induction of cell apoptosis in human A549 cells assessed as increase in apoptosis rate at 5 uM measured after 48 hrs by annexinV-FITC/propidium iodide staining based flow cytometry analysis (reference value: 3.27%); type: functional
[18] = system: A549; assay: Induction of cell apoptosis in human A549 cells assessed as increase in apoptosis rate at 10 uM measured after 48 hrs by annexinV-FITC/propidium iodide staining based flow cytometry analysis (reference value: 3.27%); type: functional
[19] = system: A549; assay: Induction of cell apoptosis in human A549 cells assessed as increase in apoptosis rate at 20 uM measured after 48 hrs by annexinV-FITC/propidium iodide staining based flow cytometry analysis (reference value: 3.27%); type: functional
[20] = system: A549; assay: Induction of cell apoptosis in human A549 cells assessed as increase in pro-caspase 3 level measured after 48 hrs by Western blot analysis; type: functional, cell-based; details: dose 5-20 µM, DDE = dose-dependent effect
[21] = system: A549; assay: Induction of cell apoptosis in human A549 cells assessed as increase in pro-caspase 9 level measured after 48 hrs by Western blot analysis; type: functional, cell-based; details: dose 5-20 µM, DDE = dose-dependent effect
[22] = system: A549; assay: Induction of cell apoptosis in human A549 cells assessed as increase in PARP level measured after 48 hrs by Western blot analysis; type: functional, cell-based; details: dose 5-20 µM, DDE = dose-dependent effect
[23] = system: A549; assay: Induction of cell apoptosis in human A549 cells assessed as increase in cleaved-caspase 3 level measured after 48 hrs by Western blot analysis; type: functional, cell-based; details: dose 5-20 µM, DDE = dose-dependent effect
[24] = system: A549; assay: Induction of cell apoptosis in human A549 cells assessed as increase in cleaved-caspase 9 level measured after 48 hrs by Western blot analysis; type: functional, cell-based; details: dose 5-20 µM, DDE = dose-dependent effect
[25] = system: A549; assay: Induction of cell apoptosis in human A549 cells assessed as increase in cleaved PARP level measured after 48 hrs by Western blot analysis; type: functional, cell-based; details: dose 5-20 µM, DDE = dose-dependent effect
[26] = system: A549; assay: Induction of cell apoptosis in human A549 cells assessed as increase in Bax expression level at 5 to 20 uM measured after 48 hrs by Western blot analysis; type: functional, cell-based; details: dose 5-20 µM
[27] = system: A549; assay: Induction of cell apoptosis in human A549 cells assessed as decrease in Bcl-2 expression level at 5 to 20 uM measured after 48 hrs by Western blot analysis; type: functional, cell-based; details: dose 5-20 µM
[28] = system: A549; assay: Induction of cell apoptosis in human A549 cells assessed as increase in Bax/Bcl-2 ratio at 5 to 20 uM measured after 48 hrs by Western blot analysis; type: functional, cell-based; details: dose 5-20 µM
[29] = system: A549; assay: Induction of cell apoptosis in human A549 cells assessed as reduction in AKT phosphorylation at 5 to 20 uM measured after 48 hrs by Western blot analysis; type: functional, cell-based; details: dose 5-20 µM
[30] = system: A549; assay: Induction of cell apoptosis in human A549 cells assessed as reduction in AKT expression at 5 to 20 uM measured after 48 hrs by Western blot analysis; type: functional, cell-based; details: dose 5-20 µM
[31] = system: A549; assay: Antimigratory activity against human A549 cells assessed as migration of cells into scratch area at 0.5 uM measured after 48 hrs by scratch assay based microscopic analysis (reference value: 85.15%); type: functional
[32] = system: A549; assay: Antimigratory activity against human A549 cells assessed as migration of cells into scratch area at 1 uM measured after 48 hrs by scratch assay based microscopic analysis (reference value: 85.15%); type: functional
[33] = system: A549; assay: Antimigratory activity against human A549 cells assessed as migration of cells into scratch area at 2 uM measured after 48 hrs by scratch assay based microscopic analysis (reference value: 85.15%); type: functional
[34] = system: A549; assay: Antimigratory activity against human A549 cells assessed as reduction in number of migrated cells measured after 48 hrs by transwell assay based microscopic analysis; type: functional, cell-based; details: dose 0.5-2 µM, DDE = dose-dependent effect
[35] = system: A549; assay: Antiinvasive activity against human A549 cells assessed as reduction in number of invasion cells measured after 48 hrs by transwell assay based microscopic analysis; type: functional, cell-based; details: dose 0.5-2 µM, DDE = dose-dependent effect

With `COc1cc2c(c(OC)c1OC)-c1ccc(OC)c(=O)cc1[C@@H](NC(C)=O)CC2` [COLCHICINE] the Activity [1] was “Active”, the Activity [2] was “Active” and the Activity [3] was 63%. The Activity [4] was “Active”.
Molecule `CC(C)C[C@@H]1NC(=O)[C@@H](NC(=O)[C@@H]2CCC(=O)N2)[C@H](C(C)C)c2ccc3c4c([nH]c3c2)-n2cnc(c2)C[C@@H](C(=O)O)NC(=O)CNC(=O)[C@H](CCCNC(=N)N)NC(=O)[C@H](C4)NC(=O)[C@H](C(C)C)NC1=O` has a pIC50 [5] of 5.49, a pIC50 [6] of 5.08 and a pIC50 [7] of 5.02. The pIC50 [8] was 5.28, the pIC50 [9] was 5.00 and the pIC50 [10] was < 5.00. For the same molecule, the inhibition [11] was “Dde”, the inhibition [12] was “Dde” and the Activity [13] was “Active”. For the same molecule, the Activity [14] was “Active”, the Activity [3] was 20% and the Activity [15] was 36.35%. For the same molecule, the Activity [16] was “Dde”, the Activity [17] was 6.14% and the Activity [18] was 11.4%. The Activity [19] was 20.62%, the Activity [20] was “Dde” and the Activity [21] was “Dde”. For the same molecule, the Activity [22] was “Dde”, the Activity [23] was “Dde” and the Activity [24] was “Dde”. The Activity [25] was “Dde”, the Activity [26] was “Active” and the Activity [27] was “Active”. The Activity [28] was “Active”, the Activity [29] was “Active” and the Activity [30] was “Active”. It also gave an Activity [31] of 60.84%, an Activity [32] of 40.22% and an Activity [33] of 21.92%. The Activity [34] was “Dde” and the Activity [35] was “Dde”.
